Calls of active or inactive are those of the source.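 The calls were made as follows: active = substrate turnover at or below 60%; inactive = substrate turnover above 60%.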

The test deals with Diacylglycerol lipase-beta (Mus musculus) (UniProt Q91WC9). Kind of test: DAGLb inhibitors reducing SAG hydrolysis, biochemical, LC-MS, overexpressed mouse DAGLb (AID 602415). Conditions: HEK293T membranes overexpressing mDAGLb, at 10 µM, active compounds read low.
Sequence of Diacylglycerol lipase-beta (Mus musculus) (Q91WC9 whole entry, looked up): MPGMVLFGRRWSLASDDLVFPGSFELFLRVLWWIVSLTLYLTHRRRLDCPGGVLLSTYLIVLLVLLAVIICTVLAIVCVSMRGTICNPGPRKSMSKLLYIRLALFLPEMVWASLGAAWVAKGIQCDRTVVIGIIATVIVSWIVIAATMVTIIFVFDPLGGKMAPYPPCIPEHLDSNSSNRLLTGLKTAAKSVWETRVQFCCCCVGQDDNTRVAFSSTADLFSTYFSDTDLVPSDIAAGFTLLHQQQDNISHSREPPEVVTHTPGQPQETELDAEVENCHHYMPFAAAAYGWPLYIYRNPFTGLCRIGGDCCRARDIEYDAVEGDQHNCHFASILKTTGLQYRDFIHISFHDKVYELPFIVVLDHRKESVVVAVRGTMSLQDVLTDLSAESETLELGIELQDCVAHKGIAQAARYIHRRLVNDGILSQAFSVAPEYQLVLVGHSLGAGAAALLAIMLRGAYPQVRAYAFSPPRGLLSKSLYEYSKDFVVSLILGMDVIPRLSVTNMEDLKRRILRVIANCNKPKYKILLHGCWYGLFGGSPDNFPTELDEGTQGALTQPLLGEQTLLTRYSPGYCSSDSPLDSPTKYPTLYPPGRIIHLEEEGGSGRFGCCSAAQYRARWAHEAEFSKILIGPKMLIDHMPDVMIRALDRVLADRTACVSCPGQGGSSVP
Take `CN(C)c1ccc(N=Nc2ccc(S(N)(=O)=O)cc2)cc1`: the substrate turnover was 59%.

`CCCN1C(=O)/C(=C2/C=Cc3ccccc3N2CC)SC1=S`: the substrate turnover is 68% (inactive).

As for `CC1(C)CC(=O)C2=C(C1)N=C1c3ccccc3C(=O)C1C2c1ccc(Cl)cc1` (stereo unspecified), the substrate turnover was 82% (inactive).

With `COc1ccc(C2/C=C\CN(C(=O)c3ccc(C)cc3)[C@H](Cc3ccccc3)C(=O)N2Cc2ccc(F)cc2)cc1` (stereo partly specified), the substrate turnover is 59%.

As to `CCSC1=NC(=O)/C(=C2/C=Cc3ccccc3N2CC)S1`, the substrate turnover is 100% (inactive).

Consider `Cc1ccc(C)c(NC(=O)/C(C#N)=C/c2cn(CC(=O)NCc3ccco3)c3ccccc23)c1`, for which the substrate turnover was 93% (inactive).

As to `O=C(NNc1c2ccccc2nc2ccccc12)c1cc2ccccc2cc1O`, the substrate turnover is 65% (inactive).

Regarding `NS(=O)(=O)c1ccc(N=Nc2c(O)ccc3ccccc23)cc1`, the substrate turnover is 57%.

Regarding `CCOC(=O)/C(C#N)=C/C=C1\C=Cc2ccccc2N1CC`, the substrate turnover is 51%.

Take `COc1ccc(N/C=C2\C(=O)CCc3c2oc2cc(Cl)c(O)c(Cl)c32)cc1`: the substrate turnover was 16%.

On to `COc1ccc(S(=O)(=O)N2CCOCC2)cc1N=Nc1sc(N)nc1-c1ccccc1`, for which the substrate turnover was 97% (inactive).

As for `O=[N+]([O-])c1ccc(C=NNc2ccc3ccccc3c2)o1`, the substrate turnover was 67% (inactive).

Turning to `CC1(C)CCCN(C(=O)c2ccc3c(c2NCCO)C(=O)c2ccccc2C3=O)C1`, the substrate turnover was 20%.

In the case of `O=C1c2ccccc2C(=O)c2c1cccc2N1CCCC1`, the substrate turnover was 79% (inactive).

As to `O=S(=O)(O)c1cccc(N=Nc2c(O)ccc3ccccc23)c1`, the substrate turnover was 59%.

Consider `CC(=NNc1ccc(S(N)(=O)=O)cc1[N+](=O)[O-])c1ccc2c(c1)OCO2`, for which the substrate turnover is 64% (inactive).

For the molecule `CCN(CC)c1ccc(N=Nc2nn(C)c(C)c2[N+](=O)[O-])cc1`, the substrate turnover is 68% (inactive).

On to `O=C1S/C(=C\c2ccc(O)c([N+](=O)[O-])c2)C(=O)N1c1ccccc1Cl`, for which the substrate turnover was 76% (inactive).

Turning to `O=[N+]([O-])c1ccc(N2CCN(c3ccc(F)cc3)CC2)cc1`, the substrate turnover was 74% (inactive).

Consider `O=C1C(NS(=O)(=O)c2cccs2)=C(N2CCN(c3cccc(Cl)c3)CC2)C(=O)c2ccccc21`, for which the substrate turnover was 81% (inactive).

On to `Nc1cc([N+](=O)[O-])cc2oc(-c3ccccc3)cc12`, for which the substrate turnover is 89% (inactive).

Take `CCOc1ccccc1N1CCN(C2=C(NS(=O)(=O)c3cccs3)C(=O)c3ccccc3C2=O)CC1`: the substrate turnover is 79% (inactive).

Consider `Cc1ccc(C2C(/C=C3/SC(=S)NC3=O)=C(c3cccs3)Oc3ccccc32)cc1` (stereo unspecified), for which the substrate turnover is 35%.

`COc1cc(C=NNc2ccccc2[N+](=O)[O-])cc(OC)c1O`: the substrate turnover is 60% (inactive).

As for `CCCCCCCCCCC[C@@H](C[C@@H]1OC(=O)[C@H]1CCCCCC)OC(=O)[C@H](CC(C)C)NC=O`, the substrate turnover was 0%.

With `CC(=O)c1ccc(N2CCN(c3ccc(C(F)(F)F)cn3)CC2)cc1`, the substrate turnover is 67% (inactive).

The values are drawn from PubChem BioAssay AID602415 (The Scripps Research Institute Molecular Screening Center, 2012).
